Results taken from paper PMC11268479, “Delineation of the complete reaction cycle of a natural Diels–Alderase” (Chemical Science, 2024).
Several values for one entry are separate records, joined by “and”; a condition that tells them apart may be missing. Identical values can stand only once. Like-named read-outs stand apart in the source and are kept apart here.

Experiments:
[1] = Uncatalysed (spontaneous) cyclisation of substrate 5, stopped-flow; type: physicochemical; settings: SF buffer, no enzyme, 10 s, 20 °C, pH 7.5, 10% acetonitrile
Method: Stopped-Flow (SF) experiments were performed using a Hi-Tech Scientific KinetAsyst Stopped-Flow System spectrophotometer (TgK Scientific, Bradford on Avon, UK). Both syringe 1 and 2 were washed with ddH2O and SF buffer (18 mM Tris–HCl, 135 mM NaCl, 10% acetonitrile, pH 7.5). 10% acetonitrile was maintained in both syringes at all times to ensure solubility of the substrate. The stop-flow was zeroed and references were taken using SF buffer in each syringe for burst phase kinetics. Purified recombinant AbyU in SEC buffer (20 mM Tris–HCl, 150 mM NaCl, pH 7.5), was diluted to a final concentration of 800 μM AbyU in SF buffer. […] This ensured a high number of readings in the first seconds of the experiment. […]
Results were fitted using Graphpad Prism. […] The amplitude of the change in absorbance was converted to concentration using the following measured absorbance coefficient for substrate 5: ε325 nm = 13 200 M^−1 cm^−1 and the following measured absorbance coefficient for product 6: ε325 nm = 1085 M^−1 cm^−1. […] Initial concentrations of substrate 5 were calculated from the absorbance at t = 0, to account for uncatalysed substrate turnover, and the tendency of the substrate to have a weak affinity with the plastic present in the stop-flow apparatus. […] The slope of the line was determined for each substrate concentration and averaged over 3–5 repeats.

AbyU [2] = biological target: T1, AbyU (Micromonospora maris, UniProt Z9P124SIT8, F95Y, form not given); assay: Multiple turnover (burst phase) stopped-flow kinetics of the AbyU catalysed conversion of 5 to 6; type: biochemical, Micromonospora maris AB-18-032
Method: To formally identify the rate-limiting step in the AbyU catalysed cycloaddition reaction, a multiple turnover kinetics experiment was undertaken. The stopped-flow transients (Fig. 5a) reveal two distinguishable burst phases when fitted to eqn (3), a derivative of eqn (1), which incorporates a linear phase to account for multiple turnovers in the steady-state.3 [drawing 3]
When the data for kburst1 are fitted to eqn (4), kon and koff can be determined to be 0.88 ± 0.03 μM^−1 s^−1 and 3.4 ± 0.71 s^−1, for substrate binding and dissociation respectively, in this conformation.4 kburst1 = kburst1on[S] + kburst1off
The relationship between the slower burst phase, kburst2 and substrate concentration, in contrast, fits well to, and is highly representative of, a two-step binding interaction (eqn (5) (ref. [32])).5 kburst2 = 1/2(p − q)where:5.1 p = kburst2on1 × [S] + kburst2off1 + kburst2on2 + kburst2off25.2 [drawing 4] 5.3 r = kburst2on1 × [S] × kburst2on2 + kburst2off1 × kburst2off2 + kburst2on1 × [S] × kburst2off2
(§1) Stopped-Flow (SF) experiments were performed using a Hi-Tech Scientific KinetAsyst Stopped-Flow System spectrophotometer (TgK Scientific, Bradford on Avon, UK). Both syringe 1 and 2 were washed with ddH2O and SF buffer (18 mM Tris–HCl, 135 mM NaCl, 10% acetonitrile, pH 7.5). 10% acetonitrile was maintained in both syringes at all times to ensure solubility of the substrate. The stop-flow was zeroed and references were taken using SF buffer in each syringe for burst phase kinetics. Purified recombinant AbyU in SEC buffer (20 mM Tris–HCl, 150 mM NaCl, pH 7.5), was diluted to a final concentration of 800 μM AbyU in SF buffer. This solution of AbyU was placed in syringe 1 to obtain references for the single turnover experiments. For the multiple turnover experiments, AbyU was added to syringe 1 at a concentration of 2 μM (diluted in SF buffer). Likewise, substrate 5 was diluted in SF buffer to double the reaction concentration and placed in syringe 2. 50 μL from each syringe was injected into the mixing chamber and measurement immediately commenced. Reactions were observed using a logarithmic timebase over either 1000 s or 10 s. For the 1000 s experiments, the timeframe was split into 15 cycles, each with 200 points, each of which was distributed in a logarithmic manner. This ensured a high number of readings in the first seconds of the experiment. […] This was compounded by the weak affinity of substrate 5 for the plastic components in the SF system, rendering it impossible to precisely replicate the concentration of 5 in the reaction chamber over multiple syringes. To measure the uncatalysed rate of substrate cyclisation, the stop flow was zeroed and references were taken using SF buffer in both syringes. Varying concentrations of substrate 5 were added to syringe 2 and measurements were taken using a linear time base over 10 seconds. All reactions were performed at 20 °C.
Results were fitted using Graphpad Prism. Data obtained before 2 ms was discarded, reflecting the dead-time of the instrument. Data were fit to equations as outlined in the text. The 10 s single turnover kinetic data were fitted to two exponentials with a sloping baseline (eqn (3)). […] To circumvent this, the data between 3 s and 10 s were separately fitted to a straight line to determine the initial rate of k3. In order to fully analyse the change in the reaction rate with respect to the concentration of 5, 3–6 transients at each substrate concentration were taken and the rate and amplitude parameters derived from the fit appropriate for each transient (Fig. S4 and S9 ^†). The background rate of reaction (Fig. S11 ^†) was removed from the steady-state reaction and from the linear portion of k3. The other exponential phases occur too rapidly for the background rate of reaction to have an appreciable influence on the data. […]

AbyU [3] = biological target: T1, AbyU; assay: Single turnover stopped-flow kinetics of the AbyU catalysed conversion of 5 to 6 (excess enzyme, absorbance 325 nm); type: biochemical, Micromonospora maris AB-18-032
Text: (§2) To further investigate the AbyU catalysed reaction stopped-flow kinetic studies were undertaken employing substrate 5. […] This feature is lost upon cyclisation and thus constitutes a viable spectrophotometric probe to monitor the AbyU catalysed conversion of substrate 5 to product 6 (Fig. 1b). […] We assessed the quality of the fit from the plotted residuals.
(§3) As the concentration of 5 increases, a concomitant decrease in the rate constants kobs1 and kobs2 is observed. […] These different conformational populations cannot be individually resolved using ensemble kinetic measurements unless their rate constants differ by at least an order of magnitude, therefore, the observed rate constant reflects average behaviour. The relative equilibrium saturation constants observed for two different binding conformations can be obtained by examining the dependence of kobs2 on (Fig. 3b). From Fig. 3b, the data present as apparent substrate inhibition. In this case, we can envisage that the ‘slow’ reacting species effectively acts as a weak inhibitor relative to the ‘fast’ reacting species, thus presenting as apparent substrate inhibition.
(§4) It should be noted that the species reflected by the third exponential phase has a larger equilibrium constant than the faster reacting species, with a rate of reaction approximately 20-fold slower than the steady-state rate of the enzyme (Fig. S6 ^†). As it represents an insignificant component of the steady-state reaction, we have not analysed this phase any further.
as §1
(§5) Results were fitted using Graphpad Prism. […]

[4] = biological target: AbyU (Micromonospora maris); assay: as above; type: biochemical, Micromonospora maris AB-18-032; settings: single turnover, 10 s, 20 °C, pH 7.5, 10% acetonitrile, eqn (2); read-out: Ki from substrate inhibition fit of kobs2 vs [5] (binding affinity for slower reacting species)
Text: as §2, §3, §4, §1, §5

AbyU [5] = biological target: T1, AbyU; assay: Steady-state kinetics of the AbyU catalysed conversion of 5 to 6 (Michaelis–Menten fit); type: biochemical, Micromonospora maris AB-18-032
Method: Fig. 5 Burst phase characterisation of the AbyU catalysed conversion of 5 to 6. (a) Example of the transient observed (blue) in the reaction of 54 μM 5 with 1 μM AbyU, shown on a logarithmic scale with a linear scale shown inset for comparison. The transient is fitted to eqn (3) (black line, see Fig. S9 ^† for fitting analysis). (b) The rate of turnover in each burst phase as a function of the concentration of 5. Data for kburst1 is fitted to a one-step binding model (eqn (4)) and kburst2 is fitted to a two-step binding model (eqn (5)). (c) Steady-state kinetics fitted to the Michaelis–Menten equation (eqn (S1) ^†). […] This is perhaps unsurprising, as the conformationally constricted product must by necessity dissociate from the ‘closed’ active site. Steady-state kinetics reveal the impact that product release has upon the overall rate. […] Stopped-Flow (SF) experiments were performed using a Hi-Tech Scientific KinetAsyst Stopped-Flow System spectrophotometer (TgK Scientific, Bradford on Avon, UK). […] This ensured a high number of readings in the first seconds of the experiment. […] The amplitude of the change in absorbance was converted to concentration using the following measured absorbance coefficient for substrate 5: ε325 nm = 13 200 M^−1 cm^−1 and the following measured absorbance coefficient for product 6: ε325 nm = 1085 M^−1 cm^−1. […]

[6] = burst phase 1, eqn (4), 20 °C, pH 7.5
[7] = burst phase 2, two-step binding, eqn (5), 20 °C, pH 7.5

T1 sequence (Z9P124SIT8 1-160 F95Y): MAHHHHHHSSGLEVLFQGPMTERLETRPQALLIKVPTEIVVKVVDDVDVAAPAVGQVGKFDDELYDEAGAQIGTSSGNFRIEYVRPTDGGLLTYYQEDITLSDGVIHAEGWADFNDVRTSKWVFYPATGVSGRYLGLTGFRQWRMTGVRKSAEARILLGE
Chain of AbyU (Micromonospora maris) (Z9P124SIT8 1-160 F95Y): as above

C=C1OC(=O)C(C(=O)[C@H](C)C[C@H](C)C(=O)/C=C/C=C/C=C/C)=C1OC [compound 5]
kspont (spontaneous cyclisation of 5) [1]: 1250 ± 17 M⁻¹ s⁻¹ | k5 (cyclisation once substrate is bound) (AbyU [2]; 20 °C, pH 7.5): N.D. (very quick) | Kd (AbyU [2]; apparent binding constant, two-step route, read-out: Kapp = K2 × K4): 1.3 µM | Kd (AbyU [2]; binding constant, ES2 conformation, read-out: K2 = k−2/k2): 1.97 ± 4.24 µM | Kd (AbyU [2]; binding constant, ES conformation, read-out: K1 = k−1/k1): 3.86 ± 0.94 µM | k1 (kon, kburst1, substrate binding, one-step) (AbyU [2]; [6]): 880000 ± 30000 M⁻¹ s⁻¹ | k−1 (koff, kburst1, substrate dissociation) (AbyU [2]; [6]): 3.4 ± 0.71 s⁻¹ and 3.41 ± 0.71 s⁻¹ | k2 (on rate, kburst2, sub-optimal conformation) (AbyU [2]; [7]): 360000 ± 460000 M⁻¹ s⁻¹ | k4 (rearrangement within active site to most productive conformation) (AbyU [2]; [7]): 1.37 ± 2.38 s⁻¹ | k−2 (off rate, kburst2, sub-optimal conformation) (AbyU [2]; [7]): 0.71 ± 0.62 s⁻¹ | k−4 (AbyU [2]; burst phase 2, two-step binding, reverse rearrangement, 20 °C, pH 7.5): 0.90 ± 2.29 s⁻¹ | K4 (k−4/k4) (AbyU [2]; equilibrium constant of rearrangement): 0.66 ± 2.81 | k3 (AbyU [3]; binding in ES3 conformation (third phase), 20 °C, pH 7.5): ≈5.7 × 10^−4 ± 3.8 × 10^−5 μM^−1 s^−1 | k−3 (AbyU [3]; dissociation from ES3 conformation (third phase), 20 °C, pH 7.5): ≈6.9 × 10^−3 ± 1.9 × 10^−3 s^−1 | rate of third exponential phase slower than the steady-state rate of the enzyme (AbyU [3]; ratio): approximately 20 fold | Km (AbyU [3]; single turnover, 10 s, 20 °C, pH 7.5, 10% acetonitrile, eqn (2), read-out: Km from substrate inhibition fit of kobs2 vs [5] (approximation of binding affinity for faster-reacting conformation(s))): 13.2 ± 3.2 µM | Ki [4]: 54.9 ± 14.5 µM | kcat slower than the initial rate of kburst1 (AbyU [5]; ratio): around 230 times | kcat (AbyU [5]; steady-state, 20 °C, pH 7.5, 10% acetonitrile): 0.116 ± 0.005 s⁻¹
